Target: T1, glutathione S-transferase (GST)-fused full-length human Syk protein (Homo sapiens, UniProt P43405)
T1 construct: (GST)-fused full-length human Syk protein; GST (glutathione S-transferase); purchased Carna Biosciences
Assay: Syk enzyme assay
Format: biochemical
Conditions: Syk enzyme assay, Test Example 1; read-out: IC50 of Syk-inhibitory activity
Procedure: A glutathione S-transferase (GST)-fused full-length human Syk protein (Carna Biosciences), which had been generated using a Baculovirus expression system, was used in the Syk enzyme assay.
15 μl of a reaction solution (1.2 ng Syk, 20 mM HEPES, 10 mM MgCl2, 50 mM NaCl, 2 mM DTT, 0.05% BSA, pH 7.0) containing a Syk protein and a predetermined concentration of a test compound was shaken for 2 minutes, and it was then left at rest at room temperature for 13 minutes. Thereafter, 5 μl of Biotin-EDPDYEWPSA-NH2 (final concentration: 0.4 μM) serving as a substrate peptide and 5 μl of ATP (final concentration: 27 μM) were added to the reaction solution, and the obtained mixture was then shaken for 2 minutes. The reaction solution was further left at rest at room temperature for 40 minutes, so as to carry out an enzyme reaction.
Thereafter, 50 μl of a reaction termination solution [5 μg/ml Streptavidin, 0.18 μg/ml PT66-K, 30 mM HEPES (pH 7.0), 150 mM KF, 75 mM EDTA, 0.15% BSA, 0.075% Tween20], which contained Streptavidin-Xlent (Cisbio) and Mab PT66-K (Cisbio), was added to the reaction solution to terminate the enzyme reaction. At the same time, the reaction solution was left at rest at room temperature for 1 hour, so as to carry out an antigen-antibody reaction. Thereafter, using EnVision (PerkinElmer), the time-resolved fluorescence was measured at 615 nm and 665 nm, so that the phosphorylation of the substrate peptide was measured.
In addition, the following are standards for evaluating IC50 of Syk-inhibitory activity used in Table 21. • A: Up to 10 nM • B: 10 to 50 nM • C: 50 to 100 nM • D: 100 to 1000 nM The set of numbers (XYZ-xyz) given in each Example number column indicates the corresponding Example number (Example XYZ-xyz) in Table 21.

Compound | IC50 [nM]
Cc1ccccc1-c1cncc(Nc2nc(N[C@@H]3CCCC[C@@H]3N)c(F)cc2C(N)=O)c1 (relative stereo) [Example 004-101, 6-(cis-2-aminocyclohexylamino)-5-fluoro-2-((5-(2-methylphenyl)pyridin-3-yl)amino)-nicotinamide] | 10 to 50
NC(=O)c1cc(F)c(N[C@@H]2CCCC[C@@H]2N)nc1Nc1ccc(C(F)(F)F)nc1 (relative stereo) [Example 004-102, 6-(cis-2-aminocyclohexylamino)-5-fluoro-2-((6-(trifluoromethyl)pyridin-3-yl)amino)-nicotinamide] | 50 to 100
NC(=O)c1cc(F)c(N[C@@H]2CCCC[C@@H]2N)nc1Nc1cncc(N2CCCCC2=O)c1 (relative stereo) [Example 004-108, 6-(cis-2-aminocyclohexylamino)-5-fluoro-2-((5-(2-oxopiperidine-1-yl)pyridin-3-yl)amino)-nicotinamide] | 100 to 1000
NC(=O)c1cc(F)c(N[C@@H]2CCCC[C@@H]2N)nc1Nc1ccc2nccn2c1 (relative stereo) [Example 004-130, 6-(cis-2-aminocyclohexylamino)-5-fluoro-2-((imidazo[1,2-a]pyridin-6-yl)amino)-nicotinamide] | 100 to 1000
NC(=O)c1cc(F)c(N[C@@H]2CCCC[C@@H]2N)nc1Nc1ccn2ccnc2c1 (relative stereo) [Example 004-131, 6-(cis-2-aminocyclohexylamino)-5-fluoro-2-((imidazo[1,2-a]pyridin-7-yl)amino)-nicotinamide] | 10 to 50
NC(=O)c1cc(F)c(N[C@@H]2CCCC[C@@H]2N)nc1Nc1cnc2c(F)cccc2c1 (relative stereo) [Example 004-135, 6-(cis-2-aminocyclohexylamino)-5-fluoro-2-((8-fluoroquinolin-3-yl)amino)nicotinamide] | 10 to 50
NC(=O)c1cc(F)c(N[C@@H]2CCCC[C@@H]2N)nc1Nc1cc(OCc2ccccc2)c2ncccc2c1 (relative stereo) [Example 004-140, 6-(cis-2-aminocyclohexylamino)-2-((8-(benzyloxy)quinolin-6-yl)amino)-5-fluoronicotinamide] | 10 to 50
COC(=O)c1cc(Nc2nc(N[C@@H]3CCCC[C@@H]3N)c(F)cc2C(N)=O)cnc1N (relative stereo) [Example 004-142, methyl 2-amino-5-((6-(cis-2-aminocyclohexylamino)-3-carbamoyl-5-fluoropyridin-2-yl)amino)nicotinate] | 10 to 50
NC(=O)c1cc(F)c(N[C@@H]2CCCC[C@@H]2N)nc1Nc1cncc(-c2ccccc2Cl)c1 (relative stereo) [Example 004-146, 6-(cis-2-aminocyclohexylamino)-2-((5-(2-chlorophenyl)pyridin-3-yl)amino)-5-fluoronicotinamide] | < 10
NC(=O)c1cc(F)c(N[C@@H]2CCCC[C@@H]2N)nc1Nc1cncc(-c2cccc(Cl)c2)c1 (relative stereo) [Example 004-147, 6-(cis-2-aminocyclohexylamino)-2-((5-(3-chlorophenyl)pyridin-3-yl)amino)-5-fluoronicotinamide] | < 10
NC(=O)c1cc(F)c(N[C@@H]2CCCC[C@@H]2N)nc1Nc1cncc(-c2ccc(Cl)cc2)c1 (relative stereo) [Example 004-148, 6-(cis-2-aminocyclohexylamino)-2-((5-(4-chlorophenyl)pyridin-3-yl)amino)-5-fluoronicotinamide] | 10 to 50
COCCOc1ncc(Nc2nc(N[C@@H]3CCCC[C@@H]3N)c(F)cc2C(N)=O)c2ccccc12 (relative stereo) [Example 004-150, 6-(cis-2-aminocyclohexylamino)-5-fluoro-2-((1-(2-methoxyethoxy)isoquinolin-4-yl)amino)-nicotinamide] | 100 to 1000

The next lines start with the values.

IC50 [nM] | Compound
< 10 | Cc1cccc(-c2cncc(Nc3nc(N[C@@H]4CCCC[C@@H]4N)c(F)cc3C(N)=O)c2)c1 (relative stereo) [Example 004-099, 6-(cis-2-aminocyclohexylamino)-5-fluoro-2-((5-(3-methylphenyl)pyridin-3-yl)amino)-nicotinamide]
< 10 | Cc1ccc(-c2cncc(Nc3nc(N[C@@H]4CCCC[C@@H]4N)c(F)cc3C(N)=O)c2)cc1 (relative stereo) [Example 004-100, 6-(cis-2-aminocyclohexylamino)-5-fluoro-2-((5-(4-methylphenyl)pyridin-3-yl)amino)-nicotinamide]
< 10 | NC(=O)c1cc(F)c(N[C@@H]2CCCC[C@@H]2N)nc1Nc1cncc(-c2cccc(OCCN3CCOCC3)c2)c1 (relative stereo) [Example 004-110, 6-(cis-2-aminocyclohexylamino)-5-fluoro-2-((5-(3-(2-morpholinoethoxy)phenyl)pyridin-3-yl)amino)nicotinamide]
< 10 | COCCOc1ccc(-c2cncc(Nc3nc(N[C@@H]4CCCC[C@@H]4N)c(F)cc3C(N)=O)c2)cc1 (relative stereo) [Example 004-111, 6-(cis-2-aminocyclohexylamino)-5-fluoro-2-((5-(4-(2-methoxyethoxy)phenyl)pyridin-3-yl)-amino)nicotinamide]
< 10 | NC(=O)c1cc(F)c(N[C@@H]2CCCC[C@@H]2N)nc1Nc1cncc(-c2ccc(OCCN3CCOCC3)cc2)c1 (relative stereo) [Example 004-112, 6-(cis-2-aminocyclohexylamino)-5-fluoro-2-((5-(4-(2-morpholinoethoxy)phenyl)pyridin-3-yl)amino)nicotinamide]
< 10 | CNc1cccc2cc(Nc3nc(N[C@@H]4CCCC[C@@H]4N)c(F)cc3C(N)=O)cnc12 (relative stereo) [Example 004-116, 6-(cis-2-aminocyclohexylamino)-5-fluoro-2-((8-(methylamino)quinolin-3-yl)amino)-nicotinamide]
< 10 | Cn1ccc(-c2cncc(Nc3nc(N[C@@H]4CCCC[C@@H]4N)c(F)cc3C(N)=O)c2)c1 (relative stereo) [Example 004-119, 6-(cis-2-aminocyclohexylamino)-5-fluoro-2-((5-(1-methyl-1H-pyrrol-3-yl)pyridin-3-yl)-amino)nicotinamide]
< 10 | COCCOc1cccc2cc(Nc3nc(N[C@@H]4CCCC[C@@H]4N)c(F)cc3C(N)=O)cnc12 (relative stereo) [Example 004-121, 6-(cis-2-aminocyclohexylamino)-5-fluoro-2-((8-(2-methoxyethoxy)quinolin-3-yl)amino)-nicotinamide]
< 10 | NC(=O)c1cc(F)c(N[C@@H]2CCCC[C@@H]2N)nc1Nc1cnc2c(O)cccc2c1 (relative stereo) [Example 004-124, 6-(cis-2-aminocyclohexylamino)-5-fluoro-2-((8-hydroxyquinolin-3-yl)amino)nicotinamide]
< 10 | CNc1cc(Nc2nc(N[C@@H]3CCCC[C@@H]3N)c(F)cc2C(N)=O)cc2cccnc12 (relative stereo) [Example 004-136, 6-(cis-2-aminocyclohexylamino)-5-fluoro-2-((8-(methylamino)quinolin-6-yl)amino)-nicotinamide]
< 10 | COCCNc1cc(Nc2nc(N[C@@H]3CCCC[C@@H]3N)c(F)cc2C(N)=O)cc2cccnc12 (relative stereo) [Example 004-137, 6-(cis-2-aminocyclohexylamino)-5-fluoro-2-((8-(2-methoxyethylamino)quinolin-6-yl)-amino)nicotinamide]
< 10 | COc1cc(Nc2nc(N[C@@H]3CCCC[C@@H]3N)c(F)cc2C(N)=O)cc2cccnc12 (relative stereo) [Example 004-138, 6-(cis-2-aminocyclohexylamino)-5-fluoro-2-((8-methoxyquinolin-6-yl)amino)nicotinamide]
< 10 | COCCOc1cc(Nc2nc(N[C@@H]3CCCC[C@@H]3N)c(F)cc2C(N)=O)cc2cccnc12 (relative stereo) [Example 004-139, 6-(cis-2-aminocyclohexylamino)-5-fluoro-2-((8-(2-methoxyethoxy)quinolin-6-yl)amino)-nicotinamide]
< 10 | NC(=O)c1cc(F)c(N[C@@H]2CCCC[C@@H]2N)nc1Nc1cncc(-c2cccc(F)c2)c1 (relative stereo) [Example 004-144, 6-(cis-2-aminocyclohexylamino)-5-fluoro-2-((5-(3-fluorophenyl)pyridin-3-yl)amino)-nicotinamide]
< 10 | NC(=O)c1cc(F)c(N[C@@H]2CCCC[C@@H]2N)nc1Nc1cncc(-c2ccc(F)cc2)c1 (relative stereo) [Example 004-145, 6-(cis-2-aminocyclohexylamino)-5-fluoro-2-((5-(4-fluorophenyl)pyridin-3-yl)amino)-nicotinamide]
